In ChEMBL document CHEMBL1201862, “PubChem BioAssay data set” (2004):
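Exposure lasted 48 hours, with cells grown in 96-well plates and compounds tested at five concentrations. GI50 is the concentration that inhibits growth by half.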 Active and inactive are the calls of the source. No stated cut-off is given here; in the data, active = GI50 up to about 1.1 µM and inactive = higher.

What was measured:
Test in all cases: growth of human tumour cells (NCI), 48 h
SNB-19 = test system: SNB-19
SNB-75 = test system: SNB-75
MDA-MB-231 = test system: MDA-MB-231
DU-145 = test system: DU-145
EKVX = test system: EKVX
A549 = test system: A549
NCI-H23 = test system: NCI-H23
HOP-92 = test system: HOP-92
Malme-3M = test system: Malme-3M
NCI/ADR-RES = test system: NCI/ADR-RES
CCRF-CEM = test system: CCRF-CEM
IGROV-1 = test system: IGROV-1
SF-268 = test system: SF-268
K562 = test system: K562
OVCAR-5 = test system: OVCAR-5
A498 = test system: A498
HL-60 = test system: HL-60
Hs-578T = test system: Hs-578T
MDA-N = test system: MDA-N

Row | Compound | GI50 (SNB-19) | GI50 (SNB-75) | GI50 (MDA-MB-231) | GI50 (DU-145) | GI50 (EKVX) | GI50 (A549) | GI50 (NCI-H23) | GI50 (HOP-92) | GI50 (Malme-3M) | GI50 (NCI/ADR-RES) | GI50 (CCRF-CEM) | GI50 (IGROV-1) | GI50 (SF-268) | GI50 (K562) | GI50 (OVCAR-5) | GI50 (A498) | GI50 (HL-60) | GI50 (Hs-578T) | GI50 (MDA-N)
1 | O=C(O)c1cc(-c2ccc(-c3ccccc3)cc2)nc2cc3ccccc3cc12 | 35.6 µM (inactive) | 29.2 µM (inactive) | 21.2 µM (inactive) | 66.8 µM (inactive) | 57.1 µM (inactive) | 19.8 µM (inactive) | 36.8 µM (inactive) | 28.2 µM (inactive) | 84.5 µM (inactive) | 75.7 µM (inactive) | 5.21 µM (inactive) | 26.4 µM (inactive) | 35.2 µM (inactive) | 14.2 µM (inactive) | > 100 µM (inactive) | > 100 µM (inactive) | 19.1 µM (inactive) | 32.3 µM (inactive) | 
2 | COc1nc2ccc(CNc3ccc(C(=O)O)cc3)cc2nc1OC | > 10 µM (inactive) | > 10 µM (inactive) | > 10 µM (inactive) | > 10 µM (inactive) | > 10 µM (inactive) | > 10 µM (inactive) | > 10 µM (inactive) |  | > 10 µM (inactive) | > 10 µM (inactive) | > 10 µM (inactive) | > 10 µM (inactive) | > 10 µM (inactive) | > 10 µM (inactive) | > 10 µM (inactive) | > 10 µM (inactive) | > 10 µM (inactive) | > 10 µM (inactive) | > 10 µM (inactive)
3 | COc1ccc(NC(=S)N/N=C/c2c(C)n(C)n(-c3ccccc3)c2=O)cc1 | 20.5 µM (inactive) | 28 µM (inactive) | 17.5 µM (inactive) |  | 42.8 µM (inactive) |  | 31.5 µM (inactive) | 22.2 µM (inactive) |  | 42.9 µM (inactive) | > 100 µM (inactive) | 47.5 µM (inactive) | 27.9 µM (inactive) | 26.2 µM (inactive) |  | 17.2 µM (inactive) | > 100 µM (inactive) | 29.9 µM (inactive) | 
4 | Cc1cc(=O)oc2c(C)c3oc(CBr)c(Br)c3cc12 | 31.6 µM (inactive) | 22.5 µM (inactive) | 87.3 µM (inactive) | 42.9 µM (inactive) | 92.3 µM (inactive) | 17.4 µM (inactive) | 39 µM (inactive) |  | > 10 µM (inactive) | 33.7 µM (inactive) | 10.4 µM (inactive) | 17.7 µM (inactive) | 25.6 µM (inactive) | 19.6 µM (inactive) | 27.4 µM (inactive) |  | 85.1 µM (inactive) | 44.1 µM (inactive) | 30.4 µM (inactive)
5 | O=C1C=CC(=C(c2ccccc2)c2ccc(O)cc2)C=C1 | 13.8 µM (inactive) | 16.9 µM (inactive) | 15.2 µM (inactive) | 17.4 µM (inactive) | 13.7 µM (inactive) | 17.4 µM (inactive) | 18.7 µM (inactive) | 18 µM (inactive) | 13.6 µM (inactive) | 32.7 µM (inactive) | 1.16 µM (inactive) | 8.41 µM (inactive) | 20 µM (inactive) | 15.1 µM (inactive) | 20.3 µM (inactive) |  | 8.15 µM (inactive) | 16.7 µM (inactive) | 
6 | CC(C)C1CN1CC(O)Cn1ccnc1[N+](=O)[O-] (stereo not drawn) | > 100 µM (inactive) | > 100 µM (inactive) | > 100 µM (inactive) | > 100 µM (inactive) | > 100 µM (inactive) | > 100 µM (inactive) | > 100 µM (inactive) |  | 62.2 µM (inactive) | > 100 µM (inactive) | > 100 µM (inactive) | > 100 µM (inactive) | > 100 µM (inactive) | > 100 µM (inactive) | > 100 µM (inactive) | > 100 µM (inactive) | > 10 µM (inactive) | > 100 µM (inactive) | > 100 µM (inactive)
7 | COc1ccc(/C=C2\CCC(CNc3ccc(S(N)(=O)=O)cc3)C2=O)cc1 (stereo not drawn) | 32 µM (inactive) | 32.1 µM (inactive) | 16.6 µM (inactive) | > 53.8 µM (inactive) | 27.6 µM (inactive) | > 82.8 µM (inactive) | 19.7 µM (inactive) | 8.53 µM (inactive) | 16 µM (inactive) | 31.6 µM (inactive) | 2.29 µM (inactive) | 20 µM (inactive) | 22.5 µM (inactive) | 1.51 µM (inactive) | 21.6 µM (inactive) | 44.4 µM (inactive) | 2.15 µM (inactive) | 43 µM (inactive) | 
8 | CCOC(=O)c1nc[nH]c1/N=N/N(C)N |  | > 100 µM (inactive) | > 100 µM (inactive) | > 100 µM (inactive) | > 100 µM (inactive) | > 100 µM (inactive) | > 100 µM (inactive) |  | > 100 µM (inactive) | > 100 µM (inactive) |  | > 100 µM (inactive) | > 100 µM (inactive) | > 10 µM (inactive) | > 100 µM (inactive) | 40.6 µM (inactive) | 29.2 µM (inactive) | > 100 µM (inactive) | > 100 µM (inactive)
9 | CCN(CCCN(CC)C(=O)Nc1c(C)cccc1C)C(=O)Nc1c(C)cccc1C | > 100 µM (inactive) | 40.3 µM (inactive) | > 100 µM (inactive) | > 100 µM (inactive) | > 100 µM (inactive) | > 100 µM (inactive) | > 100 µM (inactive) | > 100 µM (inactive) | > 100 µM (inactive) | > 100 µM (inactive) |  | > 100 µM (inactive) | > 100 µM (inactive) | > 100 µM (inactive) | > 100 µM (inactive) | > 100 µM (inactive) |  | > 100 µM (inactive) | > 100 µM (inactive)
10 | O=[N+]([O-])c1cc(Cl)cc2cc(Cl)cnc12 | > 100 µM (inactive) | 15.6 µM (inactive) | 60.1 µM (inactive) | > 100 µM (inactive) | 83.2 µM (inactive) | > 100 µM (inactive) | > 100 µM (inactive) | > 100 µM (inactive) | > 100 µM (inactive) | > 100 µM (inactive) | > 100 µM (inactive) | 7.35 µM (inactive) | > 100 µM (inactive) | > 100 µM (inactive) | > 100 µM (inactive) | 48 µM (inactive) | 62.4 µM (inactive) | 25.9 µM (inactive) | 
11 | COc1ccc(CCN2CCN(CCCc3ccccc3)CC2)cc1 | > 100 µM (inactive) |  | > 100 µM (inactive) | > 100 µM (inactive) | > 100 µM (inactive) | > 100 µM (inactive) | 64.3 µM (inactive) |  | > 100 µM (inactive) | 83 µM (inactive) | > 100 µM (inactive) | 96.8 µM (inactive) | > 100 µM (inactive) | 38.6 µM (inactive) | 77.1 µM (inactive) | > 100 µM (inactive) | > 100 µM (inactive) | > 100 µM (inactive) | > 100 µM (inactive)
12 | COC1OC2COC(C)(C)OC2C2OC(C)(C)OC12 (stereo not drawn) | 21.8 µM (inactive) |  | 16 µM (inactive) | > 100 µM (inactive) | 25.7 µM (inactive) | 85.1 µM (inactive) | 82.4 µM (inactive) |  | > 100 µM (inactive) | 63.8 µM (inactive) | 19 µM (inactive) | 18.7 µM (inactive) | > 100 µM (inactive) | 33.7 µM (inactive) | > 100 µM (inactive) | 55.2 µM (inactive) |  | 17 µM (inactive) | 69.5 µM (inactive)
13 | CCCC[N+](CCCC)(CCCC)CCCC.O=S(=O)([O-])ON=C1c2ccccc2-c2ccccc21 | > 100 µM (inactive) | > 100 µM (inactive) | > 100 µM (inactive) | > 100 µM (inactive) | > 100 µM (inactive) | > 100 µM (inactive) | > 100 µM (inactive) | > 100 µM (inactive) |  | > 100 µM (inactive) | > 100 µM (inactive) | > 100 µM (inactive) | > 100 µM (inactive) | > 100 µM (inactive) | > 100 µM (inactive) | > 100 µM (inactive) | 36 µM (inactive) | > 100 µM (inactive) | 
14 | CCOC(=O)c1c2c(n(-c3ccc(C)cc3)c1C)-c1ccccc1C(=O)C2(C(=O)OCC)C(=O)OCC | > 92.7 µM (inactive) | 28.6 µM (inactive) | 32.1 µM (inactive) | 30.4 µM (inactive) | 32.4 µM (inactive) | 30.7 µM (inactive) | 57.5 µM (inactive) | 27.6 µM (inactive) | 30.1 µM (inactive) | 33.4 µM (inactive) | 29 µM (inactive) | 30.3 µM (inactive) | 34.3 µM (inactive) | 14.5 µM (inactive) | 74 µM (inactive) | 46.6 µM (inactive) | 6.34 µM (inactive) | 25.3 µM (inactive) | 
15 | CC(NC(=O)Cc1ccc(OP(=O)(OCc2ccc([N+](=O)[O-])o2)N(C)CCCCCl)cc1)c1ccc(OCC2CCCCC2)c(C(N)=O)c1 (stereo not drawn) | 3.3 µM (inactive) |  | 2.08 µM (inactive) | 2.8 µM (inactive) |  | 1.87 µM (inactive) | 2.08 µM (inactive) |  | 1.77 µM (inactive) | 4.5 µM (inactive) | 0.906 µM (active) | 1.91 µM (inactive) | 2.22 µM (inactive) | 2.77 µM (inactive) | 3.01 µM (inactive) | 3.01 µM (inactive) | 2.22 µM (inactive) | 1.92 µM (inactive) | 1.88 µM (inactive)
16 | Cc1c(S(=O)(=O)N/C(=N\O)Nc2ccc(Cl)cc2)sc2ccc(Cl)cc12 | 18.2 µM (inactive) | 18.7 µM (inactive) | 20.1 µM (inactive) | 23.3 µM (inactive) | 12.3 µM (inactive) | 16.4 µM (inactive) | 18 µM (inactive) | 14.6 µM (inactive) | 18.5 µM (inactive) | 18 µM (inactive) | 38.4 µM (inactive) | 12.7 µM (inactive) | 18.1 µM (inactive) | 31 µM (inactive) | 18.1 µM (inactive) |  | 19.3 µM (inactive) | 18.8 µM (inactive) | 18.2 µM (inactive)
